The data set can be described thus: Human HepG2 cell viability assay in 384 well format. The class given is toxicity, cell-based. More on the design: dose 125 nL, time 70.5 hour; concentration not given beside the values. The settings on record: HepG2 cells, read-out: Inhibition.

Our source for the cytotoxicity values is ChEMBL document CHEMBL3507680, “University of Dundee, Gates Library screen for HepG2 cell viability”.

Regarding `Cc1ccc(S(=O)(=O)c2ncccc2CN2CCN(C)CC2)cc1`, the cytotoxicity at 70.5 h was -11.2%.
Consider `COCCNC(=O)CCN1C(=O)CC2(CCCC2)C1=O`, for which the cytotoxicity at 70.5 h was -15.7%.
As for `O=c1c(CN2CCSCC2)coc(O)c1CN1CCCC1`, the cytotoxicity at 70.5 h turned out to be 29.9%.
Next, `COCCn1cc(CC(=O)Nc2nc3c(s2)CCC3)c2ccccc21`: -6.21%; `CN1C(=O)COc2ccc(NC(=O)CCc3nc4cccnc4[nH]3)cc21`: -9.73%.
Next, `Cc1nn(-c2ccc(C(=O)O)cc2)c2c1C(c1cccs1)SCC(=O)N2` (stereo not drawn): 0.275%; `Cc1nn(-c2ccc(C(=O)O)cc2)c2c1C(C(C)C)SCC(=O)N2` (stereo not drawn): -2.14%; `Cc1cc(Br)c2c(c1)C1(CC(=O)Nc3c1cnn3C(C)C)C(=O)N2` (stereo not drawn): -24.3%.
Next, `Cc1ccc(S(=O)(=O)c2ncccc2CN2CCN(CCO)CC2)cc1`: -30.6%; `O=C(CCc1nc2ccccc2[nH]1)Nc1ccc2c(c1)OCC(=O)N2`: -11.6%; `CC(C)n1nc(O)c2c1NC(=O)CSC2c1cnn(C)c1` (stereo not drawn): -19.6%.
As for `O=C(CCc1nc2cc(Br)cnc2[nH]1)NCCN1CCOCC1`, the cytotoxicity at 70.5 h was -10.2%.
Next, `O=C(CCc1nc2cccnc2[nH]1)Nc1ccc2c(c1)OCC(=O)N2`: -10.5%.
To `Cn1c(CN2CCOCC2)cc(=O)c(O)c1CN1CCOCC1` belongs -12.3%; to `Cc1cc(C(=O)Nc2n[nH]c(C3CC3)n2)c2c(C)noc2n1`, 29%.
As for `O=C(Nc1nnn[nH]1)c1cc(-c2ccc(Br)s2)n[nH]1`, the cytotoxicity at 70.5 h is -3.48%.
Next, `CN(C)CCCNC(=O)C1CC(=O)N(c2n[nH]c3cccc(F)c23)C1` (stereo not drawn): -26.2%; `COc1ccc2c(c1)c(C(=O)Nc1n[nH]c(C(C)C)n1)cn2C(C)C`: 40.7%.
Take `Cn1c(CN2CCOCC2)cc(=O)c(O)c1CN1CCCC1`: the cytotoxicity at 70.5 h was -6.51%.
`O=C(CCc1nnc2ccccn2c1=O)NCc1cccnc1`: the cytotoxicity at 70.5 h was -14.8%.
Next, `O=C(C1CC(=O)N(c2n[nH]c3cc(Br)ccc23)C1)N1CCOCC1` (stereo not drawn): -11.9%; `COCCn1ccc2ccc(C(=O)N3CCN(C(C)=O)CC3)cc21`: -13.7%.
To `CSCCC(Nc1nc(C)cc(C)n1)C(=O)NC(C)(C)CO` (stereo not drawn) belongs 25.7%; to `O=C1CSC(c2ccsc2)c2c(n(C3CCCC3)[nH]c2=O)N1` (stereo not drawn), -12.7%.
Next, `Cc1cc(C)nc(NCCCC(=O)NCCn2ccc3ccccc32)n1`: -30.2%.
In the case of `CSCCC(Nc1nc(C)cc(C)n1)C(=O)NC1CCCC1` (stereo not drawn), the cytotoxicity at 70.5 h was -12.6%.
To `COCCn1cc(CC(=O)Nc2cc(C)n(C)n2)c2ccccc21` belongs -5.22%; to `O=C(CCNc1ncccn1)Nc1ccc(Cn2cncn2)cc1`, -7.19%.
Turning to `CSCCC(Nc1nc(C)cc(C)n1)C(=O)NCC1CCOCC1` (stereo not drawn), the cytotoxicity at 70.5 h is -8.81%.
To `COCCn1cc(CCC(=O)Nc2c(C)nn(C)c2C)c2ccccc21` belongs 49.6%.
To `O=C(Nc1ncc[nH]1)c1cc(-c2cccnc2)n[nH]1` belongs -2.08%.
To `CC(C)c1sc(Cl)nc1C(=O)N1CCN(c2ccccc2)CC1` belongs 28.2%.
As for `CC(=O)Nc1cccc2c1ccn2CC(=O)NC(C)C`, the cytotoxicity at 70.5 h was -2.5%.
To `Cc1nn(C)c2nc(C(C)C)cc(C(=O)Nc3n[nH]c(C4CC4)n3)c12` belongs 27%; to `CC1=Nc2c(c(=O)[nH]n2C2CCOCC2)C(c2cccc(O)c2)S1` (stereo not drawn), -7.06%; to `O=C(NCC1CCCO1)c1cc(-c2ccc3c(c2)CCO3)n[nH]1` (stereo not drawn), 16.6%.
`CCN1CCCC1CNC(=O)Cc1c(-c2ccc(Cl)cc2)n[nH]c1C` (stereo not drawn): the cytotoxicity at 70.5 h is 21.2%.
Next, `O=C(NC1CCCc2c1[nH]c1ccc(F)cc21)c1n[nH]c2c1CCCC2` (stereo not drawn): 27%; `CC(C)n1cnc2ccc(NC(=O)CCCn3cccn3)cc2c1=O`: 21.7%; `COCCn1cnc2ccc(NC(=O)c3ccc(OC)cc3)cc2c1=O`: -9.11%.
Next, `COc1ccc(C(=O)Nc2ccc3ncn(C(C)C)c(=O)c3c2)cc1`: -3.51%.
To `O=C1CSC(c2ccncc2)c2c(n(C3CCOCC3)[nH]c2=O)N1` (stereo not drawn) belongs 36.4%; to `O=C1CSC(c2ccccc2)c2c(n(C3CCOCC3)[nH]c2=O)N1` (stereo not drawn), -23%.
Consider `COc1cccc(C(=O)Nc2n[nH]c(C3CCCO3)n2)c1` (stereo not drawn), for which the cytotoxicity at 70.5 h amounted to 22.1%.
To `COc1ccc(-c2n[nH]c(C)c2CC(=O)N2CCOCC2)cc1` belongs -6.85%.
Next, `COc1ccc(CC(=O)Nc2ccc3ncn(C)c(=O)c3c2)cc1`: -2.82%; `COCCn1ccc2c(C(=O)NC3CN4CCC3CC4)cccc21` (stereo not drawn): -20.8%.
Next, `COCCNC(=O)c1cc(-c2ccc3c(c2)CCO3)n[nH]1`: 15.5%; `CC(C)n1ccc2ccc(C(=O)NC3CN4CCC3CC4)cc21` (stereo not drawn): -17.1%; `COc1ccc(-c2n[nH]c(C)c2CC(=O)NCCN2CCOCC2)cc1`: -2.78%.
Take `O=C(Cn1cnc2sccc2c1=O)NCCCc1nnc2ccccn12`: the cytotoxicity at 70.5 h is -17.5%.
Next, `COCCn1ccc2c(NC(=O)c3n[nH]c4c3CCC4)cccc21`: 1.93%; `COc1ccc(-c2n[nH]c(C)c2CC(=O)NCC2CCCO2)cc1` (stereo not drawn): 20.6%; `COc1ccc(C(=O)CNC(=O)c2nc(Cl)sc2C(C)C)cc1`: 25%.
To `O=C1CSC(c2cccnc2)c2c(n(C3CCOCC3)[nH]c2=O)N1` (stereo not drawn) belongs -24.2%.
To `CC(C)c1sc(Cl)nc1C(=O)NCc1ccncc1` belongs 19.6%; to `O=C(CN1C(=O)CCC1=O)N1CCOCC1`, 48.6%; to `CN(Cc1cccnc1)CC1CC12CCN(Cc1nccs1)CC2` (stereo not drawn), 2.96%.
For `O=S(=O)(c1cccc(F)c1)N1C[C@@H]2COC[C@]2(COCC2CC2)C1`, the cytotoxicity at 70.5 h came to 4.21%.
Take `C1CCN(Cc2nnn3c2CN(CC2CC2)CCC3)C1`: the cytotoxicity at 70.5 h came out at 0.89%.
Next, `C1CN(CC2CCOCC2)Cc2c(CN3CCOCC3)nnn2C1`: 6.54%; `c1nc2n(c1CN1CCOCC1)CCN(C1CCOC1)CC2` (stereo not drawn): 7.7%; `O=C(C1CCOC1)N1CCc2ncnc(NC3CCC3)c2CC1` (stereo not drawn): -2.47%.
`CCN(CC)Cc1cnc2n1CCN(C1CCOC1)CC2` (stereo not drawn): the cytotoxicity at 70.5 h was -1.04%.
To `CC(C)NC(=O)[C@H]1CCS(=O)(=O)[C@@H]2CN(c3ncccn3)C[C@H]12` belongs -6.18%.
Next, `CC(=O)N1CCCc2sc(C(=O)NC3CC3)nc21`: -6.9%; `O=C(NC1CC1)c1nc2c(s1)CCCN2c1ccccc1`: -6.79%; `COc1cc(N2C[C@H]3CN(C(=O)c4cnccn4)C[C@H]3C2)ncn1`: -2.87%.
As to `O=C(c1ccoc1)N1CC[C@H]2[C@H]1CCN2S(=O)(=O)C1CC1`, the cytotoxicity at 70.5 h amounted to 13.5%.
To `O=C([C@H]1COC[C@H]2CN(c3ccncn3)C[C@H]21)N1CCCC1` belongs 13.9%; to `O=C(c1ccncc1)N1CCc2onc(CN3CCCC3)c2C1`, 18.4%.
Next, `CCOCC1c2c(ncn2C(C)C)CCN1C(=O)CC` (stereo not drawn): 7.88%.
Take `COc1cc(CNCC(O)c2ccc(F)cc2F)cc2c1OCO2` (stereo not drawn): the cytotoxicity at 70.5 h is 4.59%.
Next, `CCS(=O)(=O)c1ccccc1N1CCC(NC2CCCC2)CC1`: -2.15%; `COCCCN(C)C1CCCN(Cc2noc(C3CC3)n2)C1` (stereo not drawn): 11.8%.
Next, `CCOCCN1CCN(CCCS(C)(=O)=O)CC1C` (stereo not drawn): 11.8%; `Cc1cc(CN(C)CC(c2cccs2)N2CCOCC2)on1` (stereo not drawn): -7.4%.
In the case of `Cc1nc(CN2CCCC(N(C)CC3CCCC3)C2)no1` (stereo not drawn), the cytotoxicity at 70.5 h worked out at 0.0887%.
On to `CN(Cc1ccccc1C#N)C1CCN(CCc2ccccn2)CC1`, for which the cytotoxicity at 70.5 h was -3.57%.
To `C=C(Cl)CN(C)C1CCN(CCc2ccccn2)CC1` belongs -6.31%; to `N#Cc1cccc(CN2CCCC2Cn2cccn2)c1` (stereo not drawn), -1.88%.
To `Cc1noc(C)c1CN(C)CC(c1cccs1)N1CCOCC1` (stereo not drawn) belongs -4.33%.
To `COc1ccc(CCNC(=O)CN2CCCC2c2noc(C)n2)cc1` (stereo not drawn) belongs -1.93%; to `Cc1ncc(CN2CCCC2)c2cc(C(=O)c3ccc(Br)cc3)oc12`, -14.3%.
As to `CCOC1CC2(CCN(Cc3nccn3C)CC2)C1`, the cytotoxicity at 70.5 h is -0.734%.
For the compound `CN(C)Cc1nn(C)c2c1CCN(C(=O)c1cnccn1)C2`, the cytotoxicity at 70.5 h was 17.9%.
To `COc1ncnc2c1CCN(C(=O)NCc1cccnc1)CC2` belongs 1.49%; to `CCCS(=O)(=O)N1C[C@@H]2CN(Cc3ccoc3)CCO[C@@H]2C1`, 6.66%.
Next, `Cc1cc(CN2C[C@@H]3CN(C(=O)c4ccsc4)CCO[C@@H]3C2)no1`: 5.07%; `O=C(NCc1cccnc1)N1CCc2ncnc(C3CC3)c2CC1`: 5.6%; `COc1cc(N2CCC3(CCN(C(=O)c4cccnc4)CC3)C2)ncn1`: -6.37%.
As for `O=C(NCC1CC1)[C@@H]1C[C@@H]2OCCN[C@@H]2C1`, the cytotoxicity at 70.5 h is -2.73%.
Next, `O=C(c1ccsc1)N1CCO[C@@H]2CN(Cc3cccs3)C[C@@H]2C1`: -6.05%; `O=C(c1ccncc1)N1CC[C@H]2[C@H]1CCN2S(=O)(=O)C1CC1`: -5.53%.
As to `O=C([C@@H]1COC[C@H]2CN(c3ccncn3)C[C@H]21)N1CCCC1`, the cytotoxicity at 70.5 h was determined as 10.6%.
To `c1cncc(CN2CCc3ncnc(C4CC4)c3CC2)c1` belongs 2.26%; to `Cn1nnc2c1CCN(Cc1ccncc1)C2COCc1ccccc1` (stereo not drawn), -6.13%.
Next, `Cn1nc(CN2CCCC2)c2c1CN(C(=O)c1cccnc1)CC2`: -2.33%.
